Source: US8648061B2, “Use of polyunsaturated fatty acids for the primary prevention of major cardiovascular events” (Pro Aparts Investimentos E. Consultoria LDA., priority 2001, dated 2014)

Test system: non-anesthetized guinea pigs
Assay: preliminary tests: minimum lethal dose of ouabain
Format: in vivo, guinea pig
Details: intravenously administered over 3 minutes
Method: The experimental sudden death model was obtained by cardiac arrest induced by intravenous (i.v.) administration of a cardiotoxic agent (ouabain). In preliminary tests, various doses of ouabain were administered to non-anesthetized guinea pigs of both sexes of weight 300-380 g, in order to determine the minimum lethal dose for 100% of the animals within 15 minutes from i.v. injection (240 mg/kg, intravenously administered over 3 minutes).

C[C@@H]1O[C@@H](O[C@H]2C[C@@H](O)[C@]3(CO)[C@H]4[C@H](O)C[C@]5(C)[C@@H](C6=CC(=O)OC6)CC[C@]5(O)[C@@H]4CC[C@]3(O)C2)[C@H](O)[C@H](O)[C@H]1O [ouabain]
minimum lethal dose for 100% of the animals within 15 minutes from i.v. injection: 240 mg/kg
